# Experimental data reported in patent US20080039629A1, “Benzothniazole compositions and their use as ubiquition ligation inhibitors” (RIGEL PHARMACEUTICALS, INC., priority 2003, published 2008).
# Target: T1, E1 and His-E2 Ubch10 (Homo sapiens, UniProt P22314)
# T1 construct: host or cells: E. coli (His-Ubch10); Sf9 insect cells (E1)
# T1 sequence (P22314 1-1058): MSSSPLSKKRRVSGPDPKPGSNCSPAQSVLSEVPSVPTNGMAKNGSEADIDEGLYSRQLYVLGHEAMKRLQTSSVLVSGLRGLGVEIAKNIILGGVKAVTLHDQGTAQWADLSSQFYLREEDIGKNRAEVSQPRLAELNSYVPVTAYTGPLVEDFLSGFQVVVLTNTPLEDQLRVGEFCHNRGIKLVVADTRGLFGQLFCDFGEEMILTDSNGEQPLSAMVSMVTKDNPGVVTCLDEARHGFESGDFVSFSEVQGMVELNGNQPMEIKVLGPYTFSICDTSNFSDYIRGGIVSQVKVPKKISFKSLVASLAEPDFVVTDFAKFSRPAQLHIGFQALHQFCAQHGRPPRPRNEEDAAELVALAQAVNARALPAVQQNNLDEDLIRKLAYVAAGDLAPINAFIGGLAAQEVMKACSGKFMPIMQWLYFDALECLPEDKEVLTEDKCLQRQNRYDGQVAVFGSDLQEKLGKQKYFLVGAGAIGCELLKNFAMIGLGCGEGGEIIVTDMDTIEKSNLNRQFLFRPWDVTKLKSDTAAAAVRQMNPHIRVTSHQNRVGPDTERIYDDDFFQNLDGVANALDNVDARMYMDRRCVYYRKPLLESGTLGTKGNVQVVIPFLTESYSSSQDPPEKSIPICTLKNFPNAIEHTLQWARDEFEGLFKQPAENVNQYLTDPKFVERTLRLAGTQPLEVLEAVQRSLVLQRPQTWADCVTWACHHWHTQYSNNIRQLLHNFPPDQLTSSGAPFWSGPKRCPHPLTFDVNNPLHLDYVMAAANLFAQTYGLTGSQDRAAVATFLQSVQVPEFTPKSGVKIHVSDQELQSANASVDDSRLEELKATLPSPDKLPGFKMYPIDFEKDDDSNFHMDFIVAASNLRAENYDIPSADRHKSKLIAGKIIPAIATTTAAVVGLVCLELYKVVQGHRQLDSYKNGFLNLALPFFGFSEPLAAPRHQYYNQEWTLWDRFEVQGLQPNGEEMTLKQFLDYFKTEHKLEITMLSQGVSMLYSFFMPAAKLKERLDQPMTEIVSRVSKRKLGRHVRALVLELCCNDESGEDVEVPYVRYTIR
# Test: E1 to E2 transfer assay, His-E2 Ubch10, 1.0 μM ATP (low ATP)
# Type: biochemical
# Conditions: Table 5, ATP inhibition properties; inhibition measured using IC50 values
# Text: Biological assays for determining the transfer of ubiquitin from the E1 activating agent to the E2 conjugating agent are described in U.S. patent application Ser. Nos. 09/542,497 and 09/826,312 as well as in the PCT Application WO 01/75145, all of which are incorporated by reference in their entirety. The following assay example illustrates one way by which the ubiquitin ligase inhibitory activity of the compounds of the invention can be assayed. This assay example is not meant to limit in any way the use of the compounds of the invention as ubiquitin ligase inhibitors.
# The attachment of a ubiquitin moiety to the E2 conjugating agent was assayed using Flag-ubiquitin that was purified from E. coli, E2 Ubch10 that was purified as a His-Ubch10 from E. coli, and E1 that was purified from Sf9 insect cells (Affiniti Research Products, Exeter, U.K.). The wells of a Nickel-substrate 96-well plate (Pierce Chemical) were blocked with 100 μl of 1% casein/phosphate buffered saline (PBS) for 1 hour at room temperature. The blocked Nickel-substrate plate was then washed three times with 200 μl of PBST (0.1% Tween-20 in PBS). Subsequently, Flag-ubiquitin reaction solution was added to each well so that the final concentration was 62.5 mM Tris pH 7.5, […], 0.75 mM DTT, 1.0 μM ATP (low ATP), and 100 ng Flag-ubiquitin. The final reaction solution volume was fixed to 80 μl with Millipore-filtered water. To this was added the following: a ubiquitin agent inhibitor in 10 μl of DMSO, 10 μl of E1 and His-E2 Ubch10 in 20 mM Tris buffer, pH 7.5, and 5% glycerol so that there was 10 ng/well of E1 and 20 ng/well of His-E2 Ubch10. The reaction was then allowed to proceed at room temperature for 1 hour.
# After 1 hour, the wells were washed three times with 200 μl of PBST and the amount of E2-ubiquitin complex was measured. For measuring the amount of the E2-ubiquitin complex, 100 μl of Mouse anti-flag diluted 1:10,000 (Sigma Aldrich Fluka Chemicals, St. Louis, Mo.) and anti-mouse HRP diluted 1:15,000 (Jackson Immunoresearch labs, West Grove, Pa.) in PBST were added to each well and allowed to incubate at room temperature for another hour. The wells were then washed three times with 200 μl of PBST and 100 μl of luminol substrate (⅕ dilution) was added. The luminescence of each well was then measured using a […] to calculate the amount of E2-ubiquitin complex. This procedure was repeated using His-E2 Ubch5C instead of His-E2 Ubch10.
# The table below illustrates the inhibitory properties of the pharmaceutical compostions of the invention comprising the compounds listed in the table using the assays described above. Inhibition was measured using IC50 values.
row,SMILES,UBC10
1,"O=C(O)c1ccc2c(c1)C(=O)N(c1nc3ccccc3s1)C2=O [Compound 181, 2-(benzo[d]thiazol-2-yl)-1,3-dioxosioindoline-5-carboxylic acid]",−− (−− indicates marginal or no inhibition detected with this assay)
2,"COc1ccc2nc(NC(=O)c3ccc(OC(C)=O)cc3)sc2c1 [Compound 27, 4-((6-methoxybenzo[d]thiazol-2-yl)carbamoyl)phenyl acetate]",++ (++ indicates inhibition at 50 μM or or less)
3,"COc1ccc2nc(NC(=O)c3ccc(NC(C)=O)cc3)sc2n1 [Compound 149, 4-acetamido-N-(5-methoxythiazolo[5,4-b]pyridin-2-yl)benzamide]",++ (++ indicates inhibition at 50 μM or or less)
4,"COc1ccc2nc(NC(=O)c3ccco3)sc2c1 [Compound 87, N-(6-methoxybenzo[d]thiazol-2-yl)furan-2-carboxamide]",++ (++ indicates inhibition at 50 μM or or less)
5,"COc1ccc(OC)c(NC(=O)Nc2nc3ccc(OC)cc3s2)c1 [Compound 120, 1-(2,5-dimethoxyphenyl)-3-(6-methoxybenzo[d]thiazol-2-yl)urea]",++ (++ indicates inhibition at 50 μM or or less)
6,"COc1ccc2nc(NC(=O)c3cccs3)sc2n1 [Compound 138, N-(5-methoxythiazolo[5,4-b]pyridin-2-yl)thiophene-2-carboxamide]",++ (++ indicates inhibition at 50 μM or or less)
7,"CCCc1ccc(C(=O)Nc2nc3ccccc3s2)cc1 [Compound 170, N-(benzo[d]thiazol-2-yl)-4-propylbenzamide]",−− (−− indicates marginal or no inhibition detected with this assay)
8,"COc1ccc2nc(NC(=O)c3ccc([N+](=O)[O-])cc3)sc2c1 [Compound 24, N-(6-methoxybenzo[d]thiazol-2-yl)-4-nitrobenzamide]",++ (++ indicates inhibition at 50 μM or or less)
9,"COc1ccc2nc(NC(=O)c3ccc(F)c(F)c3)sc2n1 [Compound 146, 3,4-difluoro-N-(5-methoxythiazolo[5,4-b]pyridin-2-yl)benzamide]",++ (++ indicates inhibition at 50 μM or or less)
10,"COc1ccc2nc(NC(=O)c3ccc([N+](=O)[O-])c(C)c3)sc2c1 [Compound 20, N-(6-methoxybenzo[d]thiazol-2-yl)-3-methyl-4-nitrobenzamide]",−− (−− indicates marginal or no inhibition detected with this assay)
11,"Nc1ccc(C(=O)Nc2nc3ccccc3s2)cc1 [Compound 86, 4-amino-N-(benzo[d]thiazol-2-yl)benzamide]",−− (−− indicates marginal or no inhibition detected with this assay)
12,"CCc1ccc(C(=O)Nc2nc3ccccc3s2)cc1 [Compound 85, N-(benzo[d]thiazol-2-yl)-4-ethylbenzamide]",++ (++ indicates inhibition at 50 μM or or less)
13,"CCOc1ccc2nc(NC(=O)c3ccc(Cl)c(Cl)c3)sc2c1 [Compound 96, 3,4-dichloro-N-(6-ethoxybenzo[d]thiazol-2-yl)benzamide]",++ (++ indicates inhibition at 50 μM or or less)
14,"Cc1ccc(C(=O)Nc2nc3ccccc3s2)cc1 [Compound 84, N-(benzo[d]thiazol-2-yl)-4-methylbenzamide]",++ (++ indicates inhibition at 50 μM or or less)
15,"COc1ccc2nc(NC(=O)c3ccc([N+](=O)[O-])cc3)sc2n1 [Compound 150, N-(5-methoxythiazolo[5,4-b]pyridin-2-yl)-4-nitrobenzamide]",++ (++ indicates inhibition at 50 μM or or less)
16,"O=C(Nc1nc2ccccc2s1)c1ccc(Br)o1 [Compound 208, N-(benzo[b]thiazol-2-yl)-5-bromofuran-2-carboxamide]",−− (−− indicates marginal or no inhibition detected with this assay)
17,"O=C(Nc1nc2ccccc2s1)c1ccco1 [Compound 88, N-(benzo[d]thiazol-2-yl)furan-2-carboxamide]",−− (−− indicates marginal or no inhibition detected with this assay)
18,"COc1ccc2nc(NC(=O)c3ccc(N)cc3)sc2c1 [Compound 16, 4-amino-N-(6-methoxybenzo[d]thiazol-2-yl)benzamide]",++ (++ indicates inhibition at 50 μM or or less)
19,"COc1ccc2nc(NC(=O)c3ccc(NC(C)=O)cc3)sc2c1 [Compound 17, 4-acetamido-N-(6-methoxybenzo[d]thiazol-2-yl)benzamide]",++ (++ indicates inhibition at 50 μM or or less)
20,"COc1ccc2nc(NC(C)=O)sc2c1 [Compound 41, N-(6-methoxybenzo[d]thiazol-2-yl)acetamide]",++ (++ indicates inhibition at 50 μM or or less)
21,"COc1ccc(-c2ccc(C(=O)Nc3nc4ccc(OC)cc4s3)cc2)cc1 [Compound 33, 4′-methoxy-N-(6-methoxy-1,3-benzothiazol-2-yl)biphenyl-4-carboxamide]",++ (++ indicates inhibition at 50 μM or or less)
22,"COc1ccc2nc(NC(=O)c3ccc(S(=O)(=O)N4CCCC4)cc3)sc2c1 [Compound 34, N-(6-methoxybenzo[d]thiazol-2-yl)-4-(pyrrolidin-1-ylsulfonyl)benzamide]",++ (++ indicates inhibition at 50 μM or or less)
23,"COc1ccc2nc(NC(=O)c3ccc(Cl)c(Cl)c3)sc2c1 [Compound 95, 3,4-dichloro-N-(6-methoxybenzo[d]thiazol-2-yl)benzamide]",++ (++ indicates inhibition at 50 μM or or less)
24,"COc1ccc2nc(NC(=O)c3ccncc3)sc2c1 [Compound 52, N-(6-methoxybenzo[d]thiazol-2-yl)isonicotinamide]",−− (−− indicates marginal or no inhibition detected with this assay)
25,"CCCC1CCC(C(=O)Nc2nc3ccc(OC)cc3s2)CC1 (centres unmarked) [Compound 45, N-(6-methoxybenzo[d]thiazol-2-yl)-4-propylcyclohexanecarboxamide]",++ (++ indicates inhibition at 50 μM or or less)
26,"Cc1ccc(C(=O)Nc2nc3ccc(Cl)cc3s2)cc1 [Compound 70, N-(6-chlorobenzo[d]thiazol-2-yl)-4-methylbenzamide]",−− (−− indicates marginal or no inhibition detected with this assay)
27,"O=C(Nc1nc2ccccc2s1)c1ccc([N+](=O)[O-])o1 [Compound 156, N-(benzo[d]thiazol-2-yl)-5-nitrofuran-2-carboxamide]",−− (−− indicates marginal or no inhibition detected with this assay)
28,"CCCCc1ccc(C(=O)Nc2nc3ccc(OC)cc3s2)cc1 [Compound 82, 4-butyl-N-(6-methoxybenzo[d]thiazol-2-yl)benzamide]",++ (++ indicates inhibition at 50 μM or or less)
29,"COc1ccc2nc(NC(=O)c3ccc(F)cc3)sc2n1 [Compound 154, 4-fluoro-N-(5-methoxythiazolo[5,4-b]pyridin-2-yl)benzamide]",++ (++ indicates inhibition at 50 μM or or less)
